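Compound exposure: 48 hours, 5 concentrations, 96-well plates. TGI denotes the concentration required for complete inhibition of growth.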 Peptide text beside a SMILES is read from it. * marks the point of attachment. Boc = CC(C)(C)OC(=O)*
How the values were obtained:
Experiment in all cases: DTP human tumour cell line panel, 48 h
UO-31 renal = tested on: UO-31 renal
UACC-62 melanoma = tested on: UACC-62 melanoma
OVCAR-8 ovarian = tested on: OVCAR-8 ovarian
NCI-H522 lung = tested on: NCI-H522 lung
CCRF-CEM leukemia = tested on: CCRF-CEM leukemia
HS 578T breast = tested on: HS 578T breast
OVCAR-4 ovarian = tested on: OVCAR-4 ovarian
NCI-H226 lung = tested on: NCI-H226 lung
U251 CNS = tested on: U251 CNS
SK-OV-3 ovarian = tested on: SK-OV-3 ovarian
HCT-15 colon = tested on: HCT-15 colon
SF-539 CNS = tested on: SF-539 CNS
MALME-3M melanoma = tested on: MALME-3M melanoma
M14 melanoma = tested on: M14 melanoma
PC-3 prostate = tested on: PC-3 prostate
MOLT-4 leukemia = tested on: MOLT-4 leukemia
UACC-257 melanoma = tested on: UACC-257 melanoma
SNB-19 CNS = tested on: SNB-19 CNS
MCF7 breast = tested on: MCF7 breast
SK-MEL-28 melanoma = tested on: SK-MEL-28 melanoma
SW-620 colon = tested on: SW-620 colon
MDA-MB-435 = tested on: MDA-MB-435
786-0 renal = tested on: 786-0 renal
A498 renal = tested on: A498 renal
A549 NSCLC = tested on: A549 NSCLC
HL-60(TB) leukemia = tested on: HL-60(TB) leukemia
TK-10 renal = tested on: TK-10 renal
MDA-N = tested on: MDA-N
EKVX NSCLC = tested on: EKVX NSCLC
K-562 leukemia = tested on: K-562 leukemia
KM12 colon = tested on: KM12 colon
RXF 393 renal = tested on: RXF 393 renal
SF-268 CNS = tested on: SF-268 CNS
LOX IMVI melanoma = tested on: LOX IMVI melanoma
NCI-H23 lung = tested on: NCI-H23 lung
HOP-92 NSCLC = tested on: HOP-92 NSCLC
HT29 colon = tested on: HT29 colon
SN12C renal = tested on: SN12C renal
NCI/ADR-RES ovarian = tested on: NCI/ADR-RES ovarian
COLO 205 colon = tested on: COLO 205 colon
CAKI-1 renal = tested on: CAKI-1 renal
SR leukemia = tested on: SR leukemia
SK-MEL-2 melanoma = tested on: SK-MEL-2 melanoma
MDA-MB-231 breast = tested on: MDA-MB-231 breast
T-47D breast = tested on: T-47D breast
IGROV1 ovarian = tested on: IGROV1 ovarian
DU-145 prostate = tested on: DU-145 prostate
HCT-116 colon = tested on: HCT-116 colon
OVCAR-5 ovarian = tested on: OVCAR-5 ovarian
SF-295 CNS = tested on: SF-295 CNS
BT-549 breast = tested on: BT-549 breast
ACHN renal = tested on: ACHN renal
SK-MEL-5 melanoma = tested on: SK-MEL-5 melanoma
NCI-H460 lung = tested on: NCI-H460 lung
HOP-62 NSCLC = tested on: HOP-62 NSCLC
SNB-75 CNS = tested on: SNB-75 CNS
OVCAR-3 ovarian = tested on: OVCAR-3 ovarian
RPMI-8226 leukemia = tested on: RPMI-8226 leukemia

CSCCC(NC(=O)C(CC(C)C)NC(=O)CNC(=O)OC(C)(C)C)C(=O)N(C)C (stereo not drawn) (Boc-Gly-Leu-Met-NMe2; configuration not given here)
TGI (UO-31 renal): > 100 µM | TGI (UACC-62 melanoma): > 100 µM | TGI (OVCAR-8 ovarian): > 100 µM | TGI (NCI-H522 lung): > 100 µM | TGI (CCRF-CEM leukemia): > 100 µM | TGI (HS 578T breast): > 100 µM | TGI (OVCAR-4 ovarian): > 100 µM | TGI (NCI-H226 lung): > 100 µM | TGI (U251 CNS): > 100 µM | TGI (SK-OV-3 ovarian): > 100 µM | TGI (HCT-15 colon): > 100 µM | TGI (SF-539 CNS): > 100 µM | TGI (MALME-3M melanoma): > 100 µM | TGI (M14 melanoma): > 100 µM | TGI (PC-3 prostate): > 100 µM | TGI (MOLT-4 leukemia): > 100 µM | TGI (UACC-257 melanoma): > 100 µM | TGI (SNB-19 CNS): > 100 µM | TGI (MCF7 breast): > 100 µM | TGI (SK-MEL-28 melanoma): > 100 µM | TGI (SW-620 colon): > 100 µM | TGI (MDA-MB-435): > 100 µM | TGI (786-0 renal): > 100 µM | TGI (A498 renal): > 100 µM | TGI (A549 NSCLC): > 100 µM | TGI (HL-60(TB) leukemia): > 100 µM | TGI (TK-10 renal): > 100 µM | TGI (MDA-N): > 100 µM | TGI (EKVX NSCLC): > 100 µM | TGI (K-562 leukemia): > 100 µM | TGI (KM12 colon): > 100 µM | TGI (RXF 393 renal): > 100 µM | TGI (SF-268 CNS): > 100 µM | TGI (LOX IMVI melanoma): > 100 µM | TGI (NCI-H23 lung): > 100 µM | TGI (HOP-92 NSCLC): > 100 µM | TGI (HT29 colon): > 100 µM | TGI (SN12C renal): > 100 µM | TGI (NCI/ADR-RES ovarian): > 100 µM | TGI (COLO 205 colon): > 100 µM | TGI (CAKI-1 renal): > 100 µM | TGI (SR leukemia): > 100 µM | TGI (SK-MEL-2 melanoma): > 100 µM | TGI (MDA-MB-231 breast): > 100 µM | TGI (T-47D breast): > 100 µM | TGI (IGROV1 ovarian): > 100 µM | TGI (DU-145 prostate): > 100 µM | TGI (HCT-116 colon): > 100 µM | TGI (OVCAR-5 ovarian): > 100 µM | TGI (SF-295 CNS): > 100 µM | TGI (BT-549 breast): > 100 µM | TGI (ACHN renal): > 100 µM | TGI (SK-MEL-5 melanoma): > 100 µM

CC(=O)c1nccc2c1c(C)nc1ccccc12
TGI (UO-31 renal): > 100 µM | TGI (UACC-62 melanoma): > 100 µM | TGI (OVCAR-8 ovarian): > 100 µM | TGI (NCI-H460 lung): > 100 µM | TGI (NCI-H522 lung): > 100 µM | TGI (CCRF-CEM leukemia): 68.6 µM | TGI (HOP-62 NSCLC): > 100 µM | TGI (HS 578T breast): 96.3 µM | TGI (OVCAR-4 ovarian): > 100 µM | TGI (NCI-H226 lung): 67.9 µM | TGI (U251 CNS): > 100 µM | TGI (SK-OV-3 ovarian): > 100 µM | TGI (HCT-15 colon): > 100 µM | TGI (SF-539 CNS): > 100 µM | TGI (MALME-3M melanoma): > 100 µM | TGI (M14 melanoma): > 100 µM | TGI (PC-3 prostate): > 100 µM | TGI (MOLT-4 leukemia): > 100 µM | TGI (UACC-257 melanoma): > 100 µM | TGI (SNB-19 CNS): > 100 µM | TGI (MCF7 breast): > 100 µM | TGI (SNB-75 CNS): > 100 µM | TGI (SK-MEL-28 melanoma): > 100 µM | TGI (SW-620 colon): > 100 µM | TGI (MDA-MB-435): > 100 µM | TGI (A498 renal): > 100 µM | TGI (A549 NSCLC): > 100 µM | TGI (HL-60(TB) leukemia): > 100 µM | TGI (TK-10 renal): > 100 µM | TGI (MDA-N): > 100 µM | TGI (EKVX NSCLC): > 100 µM | TGI (K-562 leukemia): > 100 µM | TGI (KM12 colon): > 100 µM | TGI (RXF 393 renal): > 100 µM | TGI (SF-268 CNS): > 100 µM | TGI (LOX IMVI melanoma): > 100 µM | TGI (NCI-H23 lung): > 100 µM | TGI (HOP-92 NSCLC): > 100 µM | TGI (HT29 colon): > 100 µM | TGI (SN12C renal): > 100 µM | TGI (NCI/ADR-RES ovarian): > 100 µM | TGI (COLO 205 colon): > 100 µM | TGI (CAKI-1 renal): > 100 µM | TGI (SR leukemia): > 100 µM | TGI (OVCAR-3 ovarian): > 100 µM | TGI (SK-MEL-2 melanoma): > 100 µM | TGI (MDA-MB-231 breast): > 100 µM | TGI (T-47D breast): > 100 µM | TGI (IGROV1 ovarian): > 100 µM | TGI (DU-145 prostate): > 100 µM | TGI (RPMI-8226 leukemia): 61 µM | TGI (HCT-116 colon): > 100 µM | TGI (OVCAR-5 ovarian): > 100 µM | TGI (SF-295 CNS): > 100 µM | TGI (BT-549 breast): > 100 µM | TGI (ACHN renal): > 100 µM | TGI (SK-MEL-5 melanoma): > 100 µM

Source: PubChem BioAssay (NCI)
